target: T1, Recombinant human Src (Homo sapiens, UniProt P12931); experiment: Src tyrosine kinase activity, poly E4Y / 32P-ATP phosphorylation assay; assay type: biochemical; conditions: Table 4, Formula III compounds; NI = no inhibition at 100 μg/mL
T1 construct: made in house; host or cells: baculovirus-insect cell system
Description: Recombinant human Src was expressed using the baculovirus-insect cell system and purified as published (Budde et al., 1993 and 2000).
The tyrosine kinase activity of Src, Csk and FGFr was determined using poly E4Y and ^32P-ATP. Briefly, enzymes were assayed in a reaction mixture consisting of 0.15 M EPPS-NaOH (pH 8.0) with 6 mM MgCl2, 0.2 mM γ^32P-ATP (0.2-0.4 mCi/μmol), 10% glycerol, 0.1% Triton X-100, and poly E4Y. Poly E4Y is a synthetic peptide whose phosphorylation is measured in this assay by the addition of the radioactively labeled phosphate from the ATP (Budde et al., 1995). […] When ATP was varied (0, 50, 100 and 250 μM), poly E4Y was kept constant at 150 μg/ml.

T1 sequence (P12931 whole entry): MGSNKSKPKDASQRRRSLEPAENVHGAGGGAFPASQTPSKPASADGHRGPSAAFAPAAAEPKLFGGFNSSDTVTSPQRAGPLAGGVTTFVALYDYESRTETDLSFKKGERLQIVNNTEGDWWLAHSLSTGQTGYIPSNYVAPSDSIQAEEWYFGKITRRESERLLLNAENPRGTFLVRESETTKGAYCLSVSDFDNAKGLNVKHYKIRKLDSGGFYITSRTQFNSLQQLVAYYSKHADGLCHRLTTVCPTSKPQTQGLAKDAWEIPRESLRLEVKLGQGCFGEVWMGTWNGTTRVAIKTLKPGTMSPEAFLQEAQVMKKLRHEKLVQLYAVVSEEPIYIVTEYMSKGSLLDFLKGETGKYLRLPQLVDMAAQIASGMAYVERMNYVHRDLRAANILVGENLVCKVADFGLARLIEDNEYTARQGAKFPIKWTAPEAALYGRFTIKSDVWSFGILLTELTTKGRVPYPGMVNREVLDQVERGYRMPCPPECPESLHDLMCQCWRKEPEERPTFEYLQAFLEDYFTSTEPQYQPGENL

| IC50 | Compound |
| --- | --- |
| 13 µM | Cc1ccc(S(=O)(=O)Nc2cc(F)c(S(=O)(=O)Cc3ccccc3Cl)cc2NS(=O)(=O)c2ccc(C)cc2)cc1 [Compound 38d, N-[4-(2-chloro-phenylmethanesulfonyl)-5-fluoro-2-(4-toluenesulfonylamino)-phenyl]-4-toluenesulfonamide] |

same assay, conditions: compound at 15 μg/mL; read-out: % Inhibition at 15 μg/mL Src %

| inhibition at 15 µg/mL | Compound |
| --- | --- |
| 13% | COc1ccc(Oc2ccc(N)c(NS(=O)(=O)c3ccc(C)cc3)c2)cc1 [Compound 71a, N-[2-amino-5-(4-methoxy-phenoxy)-phenyl]-4-toluenesulfonamide] |
| 0% | Cc1ccc(C(=O)Nc2cc(NCC3CCCCC3)c([N+](=O)[O-])cc2NC(=O)c2ccc(C)cc2)cc1 [Compound 71aa, N-[4-(cyclohexylmethyl-amino)-5-nitro-2-(4-toluoylamino)-phenyl]-4-toluamide] |
| 0% | COc1ccc(Oc2ccc(NC(=O)c3ccc(C#N)nc3)c(NS(=O)(=O)c3ccc(C)cc3)c2)cc1 [Compound 71b, 6-cyano-N-[4-(4-methoxy-phenoxy)-2-(4-toluenesulfonylamino)-phenyl]-nicotinamide] |
| 22% | Cc1ccc(C(=O)Nc2cc(NCc3cccc4ccccc34)c([N+](=O)[O-])cc2NC(=O)c2ccc(C)cc2)cc1 [Compound 71bb, N-{4-[(naphthalen-1-ylmethyl)-amino]-5-nitro-2-(4-toluoylamino)-phenyl}-4-toluamide] |
| 5% | COc1ccc(Oc2ccc(NC(=O)c3ccc(C(F)(F)F)nc3)c(NS(=O)(=O)c3ccc(C)cc3)c2)cc1 [Compound 71c, N-[4-(4-methoxy-phenoxy)-2-(4-toluenesulfonylamino)-phenyl]-6-trifluoromethyl-nicotinamide] |
| 15% | COc1ccc(Oc2cc(N)c(NS(=O)(=O)c3ccc(C)cc3)cc2[N+](=O)[O-])cc1 [Compound 71cc, N-[2-amino-4-(4-methoxy-phenoxy)-5-nitro-phenyl]-4-toluenesulfonamide] |
| 21% | COc1ccc(Oc2cc(N)c(NS(=O)(=O)c3ccc(C)cc3)cc2C(F)(F)F)cc1 [Compound 71ee, N-[2-amino-4-(4-methoxy-phenoxy)-5-trifluoromethyl-phenyl]-4-toluenesulfonamide] |
| 4% | COc1ccc(OCc2ccc(CNC(=O)c3ccc(C)cc3)c(NS(=O)(=O)c3ccc(C)cc3)c2)cc1 [Compound 71ff, N-[4-(4-methoxy-phenoxymethyl)-2-(4-toluenesulfonylamino)-benzyl]-4-toluamide] |
| 10% | COc1ccc(Oc2ccc(NCc3ccc4ccccc4n3)c(NS(=O)(=O)c3ccc(C)cc3)c2)cc1 [Compound 71g, N-{5-(4-methoxy-phenoxy)-2-[(quinolin-2-ylmethyl)-amino]-phenyl}-4-toluenesulfonamide] |
| 19% | COc1ccc(Oc2cc(NS(=O)(=O)c3ccc(C)cc3)c(N)cc2C(F)(F)F)cc1 [Compound 71gg, N-[2-amino-5-(4-methoxy-phenoxy)-4-trifluoromethyl-phenyl]-4-toluenesulfonamide] |
| 0% | COc1ccc(Oc2ccc(NS(=O)(=O)c3ccc(C)cc3)c(NC(=O)c3cnc(C)cn3)c2)cc1 [Compound 71h, N-[5-(4-methoxy-phenoxy)-2-(4-toluenesulfonylamino)-phenyl]-5-methyl-pyrazine-2-carboxamide] |
| 23% | COc1ccc(Oc2ccc(NS(=O)(=O)c3ccc(C)cc3)c(NCc3ccc(C)cc3)c2)cc1 [Compound 71hh, N-[4-(4-methoxy-phenoxy)-2-(4-methyl-benzylamino)-phenyl]-4-toluenesulfonamide] |
| 13% | COc1ccc(Oc2ccc(N)c(CNS(=O)(=O)c3ccc(C)cc3)c2)cc1 [Compound 71i, N-[2-amino-5-(4-methoxy-phenoxy)-benzyl]-4-toluenesulfonamide] |
| 21% | COc1ccc(Oc2ccc(NS(=O)(=O)c3ccc(C)cc3)c(NC(=O)NS(=O)(=O)c3ccc(C)cc3)c2)cc1 [Compound 71ii, N-{4-(4-methoxy-phenoxy)-2-[3-(4-toluenesulfonyl)-ureido]-phenyl}-4-toluenesulfonamide] |
| 19% | COc1ccc(Oc2ccc(NCc3ccc(C)cc3)c(NS(=O)(=O)c3ccc(C)cc3)c2)cc1 [Compound 71jj, N-[5-(4-methoxy-phenoxy)-2-(4-methyl-benzylamino)-phenyl]-4-toluenesulfonamide] |
| 29% | Cc1ccc(S(=O)(=O)Nc2cc(SCc3ccccc3Cl)ccc2N)cc1 [Compound 71kk, N-[2-amino-5-(2-chloro-benzylsulfanyl)-phenyl]-4-toluenesulfonamide] |
| 26% | Nc1cc(SCc2ccccc2Cl)c([N+](=O)[O-])cc1NS(=O)(=O)c1ccc(Cl)c2nonc12 [Compound 71ll, N-[2-amino-4-(2-chloro-benzylsulfanyl)-5-nitro-phenyl]-7-chloro-benzo[1,2,5]oxadiazole-4-sulfonamide] |
| 19% | CCc1ccc(NS(=O)(=O)c2ccc(OC)cc2NS(=O)(=O)c2ccc(C)cc2)cc1 [Compound 71mm, N-(4-ethyl-phenyl)-4-methoxy-2-(4-toluenesulfonylamino)-benzenesulfonamide] |
| 46% | Cc1ccc(S(=O)(=O)Nc2ccc(S(=O)(=O)Cc3ccccc3Cl)cc2NS(=O)(=O)c2ccc(C)cc2)cc1 [Compound 71nn, N-[4-(2-chloro-phenylmethanesulfonyl)-2-(4-toluenesulfonylamino)-phenyl]-4-toluenesulfonamide] |
| 10% | COc1ccc(Oc2ccc(NC(=O)Cc3ccccc3)c(NS(=O)(=O)c3ccc(C)cc3)c2)cc1 [Compound 71s, N-[4-(4-methoxy-phenoxy)-2-(4-toluenesulfonylamino)-phenyl]-2-phenyl-acetamide] |
| 0% | COc1ccc(Oc2ccc(N)c(N(C)S(=O)(=O)c3ccc(C)cc3)c2)cc1 [Compound 71t, N-[2-amino-5-(4-methoxy-phenoxy)-phenyl]-N-methyl-4-toluenesulfonamide] |
| 6% | COc1ccc(Oc2ccc(NS(=O)(=O)c3ccc(C)cc3)c(N=Cc3ccc4ccccc4n3)c2)cc1 [Compound 71u, N-{4-(4-methoxy-phenoxy)-2-[(quinolin-2-ylmethylene)-amino]-phenyl}-4-toluenesulfonamide] |
| 10% | COc1ccc(OCc2ccc(C(N)=O)c(NS(=O)(=O)c3ccc(C)cc3)c2)cc1 [Compound 71v, 4-(4-methoxy-phenoxymethyl)-2-(4-toluenesulfonylamino)-benzamide] |

same assay, conditions: poly E4Y / 32P-ATP; Formula IV compounds

| IC50 | Compound |
| --- | --- |
| 557 µM | COc1ccc(Oc2ccc(NCc3ccc(C#N)cc3)c(NS(=O)(=O)c3ccc(C)cc3)c2)cc1 [Compound 71d, N-[2-(4-cyano-benzylamino)-5-(4-methoxy-phenoxy)-phenyl]-4-toluenesulfonamide] |
| 172 µM | COc1ccc(Oc2ccc(NS(=O)(=O)c3ccc(C)cc3)c(N(C)S(=O)(=O)c3ccc(C)cc3)c2)cc1 [Compound 71dd, N-[4-(4-methoxy-phenoxy)-2-(4-toluenesulfonyl-methyl-amino)-phenyl]-4-toluenesulfonamide] |
| 203 µM | COc1ccc(Oc2ccc(NCc3ccc(NC(C)=O)cc3)c(NS(=O)(=O)c3ccc(C)cc3)c2)cc1 [Compound 71e, N-(4-{[4-(4-methoxy-phenoxy)-2-(4-toluenesulfonylamino)-phenylamino]-methyl}-phenyl)-acetamide] |
| 627 µM | COc1ccc(Oc2ccc(NCc3cc4ccccc4o3)c(NS(=O)(=O)c3ccc(C)cc3)c2)cc1 [Compound 71f, N-[2-[(benzofuran-2-ylmethyl)-amino]-5-(4-methoxy-phenoxy)-phenyl]-4-toluenesulfonamide] |
| 62 µM | COc1ccc(Oc2ccc(NS(=O)(=O)c3ccc(C)cc3)c(N)c2)cc1 [Compound 71l, N-[2-amino-4-(4-methoxy-phenoxy)-phenyl]-4-toluenesulfonamide] |
| 136 µM | COc1ccc(Oc2ccc(NS(=O)(=O)c3ccc(C)cc3)c(CNS(=O)(=O)c3ccc(C)cc3)c2)cc1 [Compound 71m, N-[4-(4-methoxy-phenoxy)-2-(4-toluenesulfonylamino-methyl)-phenyl]-4-toluenesulfonamide] |
| 1300 µM | COc1ccc(Oc2ccc(NS(=O)(=O)c3ccc(C)cc3)c(CN)c2)cc1 [Compound 71n, N-[2-aminomethyl-4-(4-methoxy-phenoxy)-phenyl]-4-toluenesulfonamide] |
| 39 µM | Cc1ccc(S(=O)(=O)Nc2ccc(NC(=O)c3ccccc3)cc2N(C(=O)c2ccccc2)S(=O)(=O)c2ccc(C)cc2)cc1 [Compound 71o, N-[3-[benzoyl-(4-toluenesulfonyl)-amino]-4-(4-toluenesulfonylamino)-phenyl]-benzamide] |
| 108 µM | COc1ccc(Oc2ccc(NS(=O)(=O)c3ccc(C)cc3)c(CNC(=O)c3ccc(C)cc3)c2)cc1 [Compound 71p, N-[5-(4-methoxy-phenoxy)-2-(4-toluenesulfonylamino)-benzyl]-4-toluamide] |
| 99 µM | COc1ccc(Oc2ccc(NS(=O)(=O)c3ccc(C)cc3)c(NC(=O)c3ccc(C)cc3)c2)cc1 [Compound 71q, N-[5-(4-methoxy-phenoxy)-2-(4-toluenesulfonylamino)-phenyl]-4-toluamide] |
| 159 µM | COc1ccc(Oc2ccc(NC(=O)c3ccc(C)cc3)c(NS(=O)(=O)c3ccc(C)cc3)c2)cc1 [Compound 71r, N-[4-(4-methoxy-phenoxy)-2-(4-toluenesulfonylamino)-phenyl]-4-toluamide] |

Source: US20060004197A1, “Sulfonamide-based compounds as protein tyrosine kinase inhibitors” (priority 2004, published 2006)
